{
  "source": "patent US20140106387A1",
  "about": "“METHOD FOR CONTROLLING NAD(P)/NAD(P)H RATIO BY OXIDOREDUCTASE” (MD BIOALPHA CO., LTD., priority 2006, published 2014)",
  "key": {"NQO1": {"tested_on": "NQO1", "experiment": "NAD(P)H recycling assay (decrease of NAD(P)H by NQO1-activating candidate compounds)", "assay_type": "biochemical", "experimental": "(10) NAD(P)H Recycling Assay\nAn NADH recycling assay was carried out using the above-extracted S9 supernatant or human recombinant NQO1 (hrNQO1). 20 μg of the S9 supernatant or 0.5 unit of hrNQO1 in conjunction with 200 μM NAD(P)H were added to a 25 mM Tris/HCl (pH 7.4) solution containing 0.2 mg/mL bovine serum albumin. The enzymatic reaction was initiated with addition of a […] compound and absorbance changes were monitored and recorded at 340 nm for 10 min.\nFor a variety of NQO1-activating candidate compounds as listed in Table 1 below, a decrease of NAD(P)H was measured based on the aforesaid experimental method (disclosed in Section 10 hereinbefore: NADH recycling assay). In addition, according to the experimental method given in Example 23, the body weight of ob/ob mice after four weeks was measured.\nIn this connection, the decreasing degree of NAD(P)H was expressed as a relative amount of NAD(P)H measured upon administration of the NQO1-activating candidate compound, by taking the amount of NAD(P)H in the absence of the NQO1 activator NAD(P)H to be 100. In addition, the degree of the body weight loss was expressed as a percentage of the body weight of ob/ob mice with administration of the NQO1-activating candidate compound, relative to the body weight of ob/ob mice without administration of the NQO1-activating candidate compound (control) after four weeks."}, "HepG2 cells": {"tested_on": "HepG2 cells", "experiment": "intracellular ATP, ADP and AMP levels by LC-MS in HepG2", "assay_type": "cell-based, human", "settings": "HepG2, 10 μM, 2 hours", "experimental": "Samples were analyzed using an Agilent 1100 series LC/MSD system equipped with G1322A degasser, G1312A binary pump, G1315A photo-diode-array detector, 59987A electrospray interface and 5989B mass spectrometer. ES-MS analysis was performed using an Agilent 5989 electrospray (ES) mass spectrometer (MS) with an Agilent Atmospheric Pressure Ionization (API) interface fitted with a hexapole ion guide. Chromatogram was automatically integrated with the aid of Chemstation software, and concentrations were determined using a standard calibration curve.\nAcid extraction was used for analysis of an AOPN concentration in the cells and liver tissues. 400 μl of 6% HClO4 was added to the cells cultured in a 100 mm dish, whereas a two-fold volume of 6% HClO4 was added to the liver tissues which were then immediately homogenized. Each mixture was centrifuged at 14,000 g and 4° C. for 10 min, and the resulting supernatants were neutralized by addition of 1 M borate buffer (pH 11) containing 4 mM EDTA in an amount of 75%. Samples were aliquoted and stored at a temperature of −80° C.\nA mobile phase was 100 mM ammonium acetate:MeOH (98:2, v/v), and preparations were filtered through a 0.22-μm Millipore filter. A flow rate was set to 0.8 mL/min and detection was made at 254 nm. Separation was carried out using a ZORBAX Bonus-RP C18 column (3.5 μm, 4.6×150 mm I.D., Waters, USA). […]"}, "[1]": {"experiment": "beta-oxidation assay: 14C-palmitic acid incorporated into liver triglyceride", "assay_type": "in vivo, mouse", "settings": "DIO mice fed 50 mg/kg for 7 days; liver removed 10 min after 14C-palmitic acid IV", "description": "The injection solution prepared in Section 1 was injected into tail veins of DIO mice at a dose of 10 microCi/150 μl/head, and the liver was removed 10 min later.\nThe removed liver was immediately and rapidly frozen in liquid nitrogen and weighed. A 5-fold weight of a 5 mM Tris-HCl buffer solution containing 0.25 M sucrose, 5 mM MgCl2, 1 mM mercaptoethanol and 0.5 mM EDTA was added to the liver tissues which were then homogenized. Equal amounts of each sample was taken and transferred to fresh 15 mL containers to which a 2.5-fold amount of C/M solution (chloroform:MetOH=2:1) was added, respectively. The mixtures were thoroughly mixed using a homogenizer for 2 min, centrifuged at 2500 rpm for 20 min to separate chloroform layers that were then transferred to fresh containers. The remaining materials were thoroughly mixed with 2-fold amounts of the C/M solution for 2 min, and centrifuged to separate chloroform layers. […] Then, more than 10-fold volumes of a toluene cocktail solution were added to chloroform layers of the vials and the mixtures were thoroughly mixed using a stirrer, and radioactivity was measured using a scintillation counter.\n10 μCi of 14C-palmitic acid was IV-injected to a tail vein of mice and 10 min later the liver was removed and homogenized Fat was extracted from the homogenizate, and radioactivity was measured by a liquid scintillation counter."}, "AMPK": {"tested_on": "AMPK", "experiment": "AMPK phosphorylation in HEK293 cells (Western blot)", "assay_type": "cell-based, human", "settings": "10 μM, 30 min", "experimental": "Cells were lysed in SDS sample buffer (62.5 mM Tris HCl (pH 6.8), 6% (w/v) SDS, 30% glycerol, 125 mM DTT, and 0.03% (w/v) bromophenol blue). The total cell lysates were boiled at a temperature of 100° C. for 5 min and electrophoresed on a sodium dodecyl sulfate-polyacrylamide gel, and proteins were transferred on a nitrocellulose membrane. The membrane was reacted in TBS (5% (w/v) milk and 0.1% Tween 20) for 1 hour, and then reacted with primary antibodies for 2 hours. Next, the membrane was developed using HRP-conjugated secondary antibodies (Phototope-HRP Western Blot Detection Kit, New England Biolabs, Beverly, Mass.).\nIn order to investigate the importance of an NQO1 protein in phosphorylation of AMP kinase, HepG2, MCF-7 and HEK293 cells were seeded onto 60 mm plates at a density of 1×10^6 cells/plate. After growing the cells for 24 hours, the culture medium was replaced with a serum-free medium, and cells were treated with pyrano-1,2-naphthoquinone (10 μM) for 30 min, respectively, in combination with a control group (DMSO). Cells were lysed in RIPA buffer and amounts of all proteins were quantified using a spectrophotometer, and 50 μg of the protein was subjected to electrophoresis. AMP kinase phosphorylation was examined using Anti-AMPK and Anti-pT172-AMPK, whereas the NQO1 protein was assayed using Anti-NQO1. From the fact that AMP kinase phosphorylation by pyran-1,2-naphthoquinone (10 μM) was not observed in HEK293 cells, it can be seen that the NQO1 protein is crucial for phosphorylation of AMP kinase.\nIn order to examine that an activity of NQO1 is important for the phosphorylation of AMP kinase, HEK293 cells were seeded onto a 6-well plate at a density of 1×10^5 cells/well, cultured for 24 hours, and transfected with pSG5-HA-NQO1 (500 ng) and pSG5-HA-NOQ1-C609T (500 ng) plasmids. After 24 hours, the culture medium was replaced with a serum-free medium, and the cells were treated with pyrano-1,2-naphthoquinone (10 μM) and AICAR (2 mM) for 30 min, in combination with a control (DMSO). AMP kinase phosphorylation were assayed using Anti-AMPK and Anti-pT172-AMPK, whereas transfected NQO1 was assayed using Anti-HA.\nIn addition, AMPK phosphorylation/activation was not promoted in HEK293 cells, except for HEK293 cells transfected with wild type NQO1."}, "[2]": {"experiment": "swimming test of physical endurance", "assay_type": "in vivo, mouse", "settings": "C57BL/6 DIO mice, single administration, 3 hours later", "experimental": "This Example was intended to measure a difference in physical endurance of mice through a swimming test. For this purpose, water was placed in a cylindrical trough having a diameter of 9.5 cm and a height of 25 cm, and pyrano-1,2-naphthoquinone was administered to C57BL/6 DIO mice. 3 hours later, a sample-administered group and a control group were placed simultaneously into each cylindrical trough for measurement, and physical endurance of each group was measured and compared."}},
  "data": [
    {"smiles": "CC1(C)CCC2=C(O1)c1ccccc1C(=O)C2=O", "note": "[βL, 2,2-Dimethyl-3,4-dihydro-2H-benzo[h]chromene-5,6-dione]", "values": [
      {"measurement": "Residual amount of NAD(P)H(%)", "setting": "NQO1; relative amount of NAD(P)H, amount in the absence of the NQO1 activator taken to be 100", "result": "61.27 ± 1.09", "unit": "%"},
      {"measurement": "decrease of NAD(P)H and consequent body weight reduction", "setting": "NQO1; summary of Table 1 in words", "result": "significant decrease of NAD(P)H"},
      {"measurement": "time at which ATP amount was minimum and AMP amount maximum", "setting": "HepG2 cells", "result": 30, "unit": "min"},
      {"measurement": "amount of 14C-palmitic acid incorporated into hepatic triglyceride (TG), lower than vehicle-treated mice", "setting": "[1]", "result": "about 45%"},
      {"measurement": "AMP kinase phosphorylation", "setting": "AMPK; HEK293 cells (no NQO1)", "result": "not promoted"},
      {"measurement": "AMP kinase phosphorylation", "setting": "AMPK; HEK293 cells (no NQO1), listed as pyran-1,2-naphthoquinone", "result": "not observed"},
      {"measurement": "AMP kinase phosphorylation", "setting": "AMPK; HEK293 transfected with NQO1-C609T having no NQO1 activity", "result": "no phosphorylation of AMP kinase"},
      {"measurement": "increase of swimming duration compared to control", "setting": "[2]", "result": "two-fold"}
    ]}
  ]
}
